Measurements taken from paper PMC8179178 (Chemical Science, 2021).
Converted amounts (≈) assume the structure as drawn. Where a name gives a salt, the structure may show the parent alone.

Assays:
[1] = system: MC38 cells; assay: MTT cell proliferation assay; format: cell-based, murine; conditions: Mus musculus, MC-38, read-out: Cytotoxicity (IC50)
[2] = system: rats; conditions: given over 22 days; cited from earlier work
[3] = Solubility in PBS; format: physicochemical; conditions: aqueous buffer

| SMILES | IC50 [1] [nM] | Multi-dose MTD of conventional Dox [2] [mg/kg] | solubility [3] [µg/mL] |
| --- | --- | --- | --- |
| COc1cccc2c1C(=O)c1c(O)c3c(c(O)c1C2=O)C[C@@](O)(C(=O)CO)C[C@@H]3O[C@H]1C[C@H](N)[C@H](O)[C@H](C)O1 [Dox HCl, doxorubicin] | 23 | 10 | 3800 |
| Nc1ccn([C@@H]2O[C@H](CO)[C@@H](O)C2(F)F)c(=O)n1 [GCB HCl, gemcitabine] | 3 | – | – |
| CC(=O)O[C@H]1C(=O)[C@@]2(C)[C@H]([C@H](OC(=O)c3ccccc3)[C@]3(O)C[C@H](OC(=O)[C@H](O)[C@@H](NC(=O)c4ccccc4)c4ccccc4)C(C)=C1C3(C)C)[C@]1(OC(C)=O)CO[C@@H]1C[C@@H]2O [PTX, paclitaxel] | 32 | – | – |
| COc1cc([C@@H]2c3cc4c(cc3[C@@H](O[C@@H]3O[C@@H]5CO[C@@H](C)O[C@H]5[C@H](O)[C@H]3O)[C@H]3COC(=O)[C@H]23)OCO4)cc(OC)c1O [ETP, etoposide] | 160 | – | 2800 (≈ 4.76 mM) |
